Data on twelve molecules can be found in US12012392B2, “Sulfonamide carboxamide compounds” (Inflazome Limited, priority 2017, dated 2024).

Structures are written as SMILES.

Tested on in the first data set: not listed separately
The experiment in a line: PK protocol (intravenous and oral administration). To be noted: male, Sprague Dawley, plasma; rat, intravenous, dose 1 mg/kg. In kind it is in vivo, male Sprague Dawley rats. The protocol:
Pharmacokinetic parameters were determined in male Sprague Dawley rats (Charles River, UK, 250-350 g; or Vital River Laboratory Animal Technology Co Ltd, Beijing, China, 7-9 weeks old). Animals were individually housed during the study and maintained under a 12 h light/dark cycle. Animals had free access to food and water except that some orally dosed animals were food deprived overnight prior to the study. For intravenous administration, compounds were formulated as a solution in water or DMSO:PBS [10:90] in 2 mL/kg dosing volume and administered via tail vein. For oral administration, compounds were formulated as a solution in water or DMSO:water [10:90] in 5 mL/kg dosing volume and administered orally.
Serial blood samples (about 120-300 μL) were taken from each animal at each of 8 time-points post dose (0.083, 0.25, 0.5, 1, 2, 4, 8 and 24 h) or at each of 12 time-points post dose (0.03, 0.1, 0.17, 0.25, 0.5, 1, 2, 4, 6, 8, 12 and 24 h) or pre-dose and at each of 9 time-points post dose (0.25, 0.5, 1, 2, 4, 6, 8, 12 and 24 h). Samples were held on ice for no longer than 30 minutes before centrifugation (10,000 rpm (8,385 g) for 3 minutes; or 5,696 rpm (3,000 g) for 15 minutes) for plasma generation. Plasma was frozen on dry ice prior to bioanalysis. PK parameters were generated from LC-MS/MS data using Dotmatics or Phoenix WinNonlin 6.3 software.
The molecule `CN(CCO)Cc1cc(S(=O)(=O)NC(=O)Nc2c3c(cc4c2CCC4)CCC3)nn1C` [Example 77, N-((1,2,3,5,6,7-Hexahydro-s-indacen-4-yl)carbamoyl)-5-(((2-hydroxyethyl)(methyl)amino)methyl)-1-methyl-1H-pyrazole-3-sulfonamide] showed an AUC of 2070 ng·h/mL, a clearance of 8.1 mL/min/kg and a half-life of 14.2 h. On the same counts, the results for `CC(C)(O)c1coc(S(=O)(=O)NC(=O)Nc2c3c(cc4c2CCC4)CCC3)c1` [MCC950, reference compound] are 611 ng·h/mL, 27.8 mL/min/kg and 1.2 h.

Still in this data set, the particulars now being: male, Sprague Dawley, plasma; rat, intravenous, dose 1 mg/kg; read-out: Vdss.
Turning to `CN(CCO)Cc1cc(S(=O)(=O)NC(=O)Nc2c3c(cc4c2CCC4)CCC3)nn1C` [Example 77, N-((1,2,3,5,6,7-Hexahydro-s-indacen-4-yl)carbamoyl)-5-(((2-hydroxyethyl)(methyl)amino)methyl)-1-methyl-1H-pyrazole-3-sulfonamide], the Vd worked out at 1.9 L/kg. Still for that read-out and setting: next, `CC(C)(O)c1coc(S(=O)(=O)NC(=O)Nc2c3c(cc4c2CCC4)CCC3)c1` [MCC950, reference compound]: 0.53 L/kg.

The target of the next data set is NLRP3 (Homo sapiens, UniProt Q96P20). The experiment in a line: THP-1 cells pyroptosis assay. In kind it is cell-based. On the set-up: Seed THP-1 cells (25,000 cells/well) containing 1.0 μg/ml LPS; host or cells: THP-1 cells, LPS-primed, nigericin-stimulated. The following applies: LPS 1 μg/ml, nigericin 5 μM, resazurin read-out. The protocol: THP-1 cells (ATCC #TIB-202) were grown in RPMI containing L-glutamine (Gibco #11835) supplemented with 1 mM sodium pyruvate (Sigma #S8636) and penicillin (100 units/ml)/streptomycin (0.1 mg/ml) (Sigma #P4333) in 10% Fetal Bovine Serum (FBS) (Sigma #F0804). The cells were routinely passaged and grown to confluency (˜10^6 cells/ml). On the day of the experiment, THP-1 cells were harvested and resuspended into RPMI medium (without FBS). The cells were then counted and viability (>90%) checked by Trypan blue (Sigma #T8154). Appropriate dilutions were made to give a concentration of 625,000 cells/ml. To this diluted cell solution was added LPS (Sigma #L4524) to give a 1 μg/ml Final Assay Concentration (FAC). 40 μl of the final preparation was aliquoted into each well of a 96-well plate. The plate thus prepared was used for compound screening.
NLRP3, sequence (Q96P20 whole entry): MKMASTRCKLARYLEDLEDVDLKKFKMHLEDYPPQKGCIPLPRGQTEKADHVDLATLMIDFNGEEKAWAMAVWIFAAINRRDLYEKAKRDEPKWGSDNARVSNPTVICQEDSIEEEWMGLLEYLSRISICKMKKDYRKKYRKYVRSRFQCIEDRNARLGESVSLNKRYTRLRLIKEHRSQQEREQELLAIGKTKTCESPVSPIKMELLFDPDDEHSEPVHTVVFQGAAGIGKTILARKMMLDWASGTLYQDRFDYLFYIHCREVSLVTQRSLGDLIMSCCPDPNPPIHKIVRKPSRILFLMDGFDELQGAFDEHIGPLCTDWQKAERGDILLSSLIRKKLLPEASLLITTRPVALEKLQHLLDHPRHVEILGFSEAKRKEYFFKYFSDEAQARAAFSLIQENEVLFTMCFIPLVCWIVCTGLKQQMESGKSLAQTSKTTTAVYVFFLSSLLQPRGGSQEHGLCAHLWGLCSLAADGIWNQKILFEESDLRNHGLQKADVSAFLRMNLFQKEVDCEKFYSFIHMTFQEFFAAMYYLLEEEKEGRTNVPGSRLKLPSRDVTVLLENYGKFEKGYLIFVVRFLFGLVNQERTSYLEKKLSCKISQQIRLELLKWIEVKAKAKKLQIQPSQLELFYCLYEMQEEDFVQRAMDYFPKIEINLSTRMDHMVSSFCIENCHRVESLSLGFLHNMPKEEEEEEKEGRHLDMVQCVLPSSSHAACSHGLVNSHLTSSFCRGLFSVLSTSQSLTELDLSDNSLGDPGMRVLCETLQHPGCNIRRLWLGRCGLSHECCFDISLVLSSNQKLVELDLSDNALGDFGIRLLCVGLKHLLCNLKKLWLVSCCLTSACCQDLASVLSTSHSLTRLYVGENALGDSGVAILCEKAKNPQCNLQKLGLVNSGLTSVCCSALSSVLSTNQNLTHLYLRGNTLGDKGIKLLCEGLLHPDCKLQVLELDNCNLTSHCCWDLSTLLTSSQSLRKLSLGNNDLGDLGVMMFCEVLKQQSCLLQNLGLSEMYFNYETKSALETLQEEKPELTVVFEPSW
The following method step-by-step assay was followed for compound screening. • 1. Seed THP-1 cells (25,000 cells/well) containing 1.0 μg/ml LPS in 40 μl of RPMI medium (without FBS) in 96-well, black walled, clear bottom cell culture plates coated with poly-D-lysine (VWR #734-0317) • 2. Add 5 μl compound (8 points half-log dilution, with 10 μM top dose) or vehicle (DMSO 0.1% FAC) to the appropriate wells • 3. Incubate for 3 hrs at 37° C. and 5% CO2 • 4. Add 5 μl nigericin (Sigma #N7143) (FAC 5 μM) to all wells • 5. Incubate for 1 hr at 37° C. and 5% CO2 • 6. At the end of the incubation period, spin plates at 300×g for 3 mins and remove supernatant • 7. Then add 50 μl of resazurin (Sigma #R7017) (FAC 100 μM resazurin in RPMI medium without FBS) and incubate plates for a further 1-2 hrs at 37° C. and 5% CO2 • 8. Plates were read in an Envision reader at Ex 560 nm and Em 590 nm • 9. IC50 data is fitted to a non-linear regression equation (log inhibitor vs response-variable slope 4-parameters) 96-Well Plate Map
As to `CC(C)c1cc(F)cc(C(C)C)c1NC(=O)NS(=O)(=O)c1ccn(C[C@@H](C)O)n1` [Example 27, (R)—N-((4-Fluoro-2,6-diisopropylphenyl)carbamoyl)-1-(2-hydroxypropyl)-1H-pyrazole-3-sulfonamide], the IC50 was 640 to 2560 nM. Consider `CC(C)c1cc(F)cc(C(C)C)c1NC(=O)NS(=O)(=O)c1cc(C2(O)COC2)n(C(C)C)n1` [Example 43, N-((4-Fluoro-2,6-diisopropylphenyl)carbamoyl)-5-(3-hydroxyoxetan-3-yl)-1-isopropyl-1H-pyrazole-3-sulfonamide], for which the IC50 was 640 to 2560 nM.

Consider `CCn1nc(S(=O)(=O)NC(=O)Nc2c(C(C)C)cc(F)cc2C(C)C)cc1C1(O)COC1` [Example 44, 1-Ethyl-N-((4-fluoro-2,6-diisopropylphenyl)carbamoyl)-5-(3-hydroxyoxetan-3-yl)-1H-pyrazole-3-sulfonamide], for which the IC50 was 160 to 640 nM. Same read-out and setting: next, `COC1(c2cc(S(=O)(=O)NC(=O)Nc3c(C(C)C)cc(F)cc3C(C)C)nn2C)COC1` [Example 52, N-((4-Fluoro-2,6-diisopropylphenyl)carbamoyl)-5-(3-methoxyoxetan-3-yl)-1-methyl-1H-pyrazole-3-sulfonamide]: 160 to 640 nM. The same measure, in the same setting: next, `CC(C)c1cc(F)cc(C(C)C)c1NC(=O)NS(=O)(=O)c1cc(C2(O)CCOCC2)n(C)n1` [Example 54, N-((4-Fluoro-2,6-diisopropylphenyl)carbamoyl)-5-(4-hydroxytetrahydro-2H-pyran-4-yl)-1-methyl-1H-pyrazole-3-sulfonamide]: 640 to 2560 nM; `CN(C(=O)c1cc(S(=O)(=O)NC(=O)Nc2c3c(cc4c2CCC4)CCC3)nn1C)C1CCOCC1` [Example 60, 3-(N-((1,2,3,5,6,7-Hexahydro-s-indacen-4-yl)carbamoyl)sulfamoyl)-N,1-dimethyl-N-(tetrahydro-2H-pyran-4-yl)-1H-pyrazole-5-carboxamide]: 2560 to 10000 nM; `CN(C(=O)c1cc(S(=O)(=O)NC(=O)Nc2c3c(cc4c2CCC4)CCC3)nn1C)C1COC1` [Example 63, 3-(N-((1,2,3,5,6,7-Hexahydro-s-indacen-4-yl)carbamoyl)sulfamoyl)-N,1-dimethyl-N-(oxetan-3-yl)-1H-pyrazole-5-carboxamide]: 640 to 2560 nM. Still for that read-out and setting: next, `CN(CC(O)CO)C(=O)c1cc(S(=O)(=O)NC(=O)Nc2c3c(cc4c2CCC4)CCC3)nn1C` (stereo not drawn) [Example 65, N-(2,3-Dihydroxypropyl)-3-(N-((1,2,3,5,6,7-hexahydro-s-indacen-4-yl)carbamoyl)sulfamoyl)-N,1-dimethyl-1H-pyrazole-5-carboxamide]: 640 to 2560 nM; `CC(C)c1cccc(C(C)C)c1NC(=O)NS(=O)(=O)c1cc(C(=O)N2CCOCC2)n(C)n1` [Example 67, N-((2,6-Diisopropylphenyl)carbamoyl)-1-methyl-5-(morpholine-4-carbonyl)-1H-pyrazole-3-sulfonamide]: 640 to 2560 nM. On to `COCCN(C)C(=O)c1cc(S(=O)(=O)NC(=O)Nc2c(C(C)C)cccc2C(C)C)nn1C` [Example 68, 3-(N-((2,6-Diisopropylphenyl)carbamoyl)sulfamoyl)-N-(2-methoxyethyl)-N,1-dimethyl-1H-pyrazole-5-carboxamide], for which the IC50 is 2560 to 10000 nM.
